Measured values as given in patent US7265129B2, “Anti-infective biaryl compounds” (priority 2002, dated 2007).

Columns and labels:
S. aureus ATCC 27660 = assay: MIC, NCCLS broth microdilution, S. aureus MRSA; format: cell-based, Staphylococcus aureus; details: S. aureus ATCC 27660, methicillin resistant strain (MRSA)
From the text: (§1) It vitro biological activity data were collected for a variety of microorganisms, including Bacillus cereus (ATCC 11778), Staphylococcus aureus (ATCC 33591; ATCC 27660, a methicillin resistant strain (MRSA); ATCC 13709, a methicillin sensitive strain (MSSA)), Enterococcus faecalis (ATCC 29212), and Streptococcus pneumoniae (ATCC 49619). Additionally, antifungal activity data were collected for Candida albicans (ATCC 38247).
(§2) Compounds according to this invention were screened for their in vitro activities against selected species of bacteria and fungi. The minimal inhibition concentration (MIC) of these compounds was determined using the National Committee for Clinical Laboratory Standards (NCCLS) broth microdilution assay in microtiter plates, as set forth in: (1) the guidelines of the National Committee for Clinical Laboratory Standards (NCCLS) Document M7-A4 (NCCLS, 1997); (2) the guidelines of the National Committee for Clinical Laboratory Standards (NCCLS) Document M11-A4 (NCCLS, 1997); and (3) the guidelines and reference method of the National Committee for Clinical Laboratory Standards (NCCLS) Document M27-T (NCCLS, 1995). For antifungal assays, the method recommended in Murray, P R., 1995 Manual of Clinical Microbiology (ASM Press, Washington, D.C.), was employed.

E. faecalis ATCC 29212 = assay: MIC, NCCLS broth microdilution, E. faecalis; format: cell-based, Enterococcus faecalis
From the text: as §1, §2

C. albicans ATCC 38247 = assay: MIC, antifungal assay, C. albicans; format: cell-based, Candida albicans
From the text: as §1, §2

B. cereus ATCC 11778 = assay: MIC, NCCLS broth microdilution, B. cereus; format: cell-based, Bacillus cereus
From the text: as §1, §2

S. aureus ATCC 13709 = assay: MIC, NCCLS broth microdilution, S. aureus MSSA; format: cell-based, Staphylococcus aureus; details: S. aureus ATCC 13709, methicillin sensitive strain (MSSA)
From the text: as §1, §2

S. pneumoniae ATCC 49619 = assay: MIC, NCCLS broth microdilution, S. pneumoniae; format: cell-based, Streptococcus pneumoniae
From the text: as §1, §2

S. aureus ATCC 33591 = assay: MIC, NCCLS broth microdilution, S. aureus ATCC 33591; format: cell-based, Staphylococcus aureus
From the text: as §1, §2

Compound | Minimum Inhibitory Concentration (MIC), organism E (S. aureus ATCC 27660) | Minimum Inhibitory Concentration (MIC), organism C (E. faecalis ATCC 29212) | Minimum Inhibitory Concentration (MIC), organism B (C. albicans ATCC 38247) | Minimum Inhibitory Concentration (MIC), organism A (B. cereus ATCC 11778) | Minimum Inhibitory Concentration (MIC), organism D (S. aureus ATCC 13709) | Minimum Inhibitory Concentration (MIC), organism G (S. pneumoniae ATCC 49619) | Minimum Inhibitory Concentration (MIC), organism F (S. aureus ATCC 33591)
CN(C)CCCn1cc(NC(=O)c2ccc(Cl)cc2F)cc1C(=O)Nc1cc(-c2nc3cccnc3[nH]2)n(C)c1 [Compound A-39] | +++ (MIC ≦ 4 μg/mL) | +++ (MIC ≦ 4 μg/mL) | + (12 ≦ MIC ≦ 32 μg/mL) | +++ (MIC ≦ 4 μg/mL) | +++ (MIC ≦ 4 μg/mL) | +++ (MIC ≦ 4 μg/mL) | +++ (MIC ≦ 4 μg/mL)
Cn1cc(NC(=O)c2cc(NC(=O)c3ccc(Cl)cc3F)cn2CCCN2CCOCC2)cc1-c1nc2cccnc2[nH]1 [Compound A-40] | +++ (MIC ≦ 4 μg/mL) | +++ (MIC ≦ 4 μg/mL) | >32 µg/mL | +++ (MIC ≦ 4 μg/mL) | +++ (MIC ≦ 4 μg/mL) | +++ (MIC ≦ 4 μg/mL) | +++ (MIC ≦ 4 μg/mL)
Cn1cc(NC(=O)c2cc(NC(=O)c3sccc3Cl)cn2CCCN(CCO)CCO)cc1-c1nc2ccccc2[nH]1 [Compound A-55] | ++ (4 < MIC < 12 μg/mL) | + (12 ≦ MIC ≦ 32 μg/mL) | >32 µg/mL | + (12 ≦ MIC ≦ 32 μg/mL) | + (12 ≦ MIC ≦ 32 μg/mL) | ++ (4 < MIC < 12 μg/mL) | ++ (4 < MIC < 12 μg/mL)
Cn1cc(NC(=O)c2cc(NC(=O)c3ccc(Cl)cc3F)cn2CCCN(CCO)CCO)cc1-c1nc2cccnc2[nH]1 [Compound A-44] | +++ (MIC ≦ 4 μg/mL) | ++ (4 < MIC < 12 μg/mL) | >32 µg/mL | + (12 ≦ MIC ≦ 32 μg/mL) | ++ (4 < MIC < 12 μg/mL) | +++ (MIC ≦ 4 μg/mL) | +++ (MIC ≦ 4 μg/mL)
Cn1cc(NC(=O)c2cc(NC(=O)c3sc4ccccc4c3Cl)cn2CCCN2CCCCC2)cc1-c1nc2ccccc2[nH]1 [Compound A-23] | +++ (MIC ≦ 4 μg/mL) | +++ (MIC ≦ 4 μg/mL) | + (12 ≦ MIC ≦ 32 μg/mL) | +++ (MIC ≦ 4 μg/mL) | +++ (MIC ≦ 4 μg/mL) | +++ (MIC ≦ 4 μg/mL) | +++ (MIC ≦ 4 μg/mL)
Cn1cc(NC(=O)c2cc3ccccc3cn2)cc1C(=O)Nc1cc(-c2nc3ccncc3[nH]2)n(C)c1 [Compound A-14] | +++ (MIC ≦ 4 μg/mL) | +++ (MIC ≦ 4 μg/mL) | >32 µg/mL | +++ (MIC ≦ 4 μg/mL) | +++ (MIC ≦ 4 μg/mL) | +++ (MIC ≦ 4 μg/mL) | +++ (MIC ≦ 4 μg/mL)
Cc1cccc2nc(-c3cc(NC(=O)c4cc(NC(=O)c5cc6ccccc6cn5)cn4C)cn3C)[nH]c12 [Compound A-3] | >32 µg/mL | >32 µg/mL | >32 µg/mL | >32 µg/mL | >32 µg/mL | >32 µg/mL | >32 µg/mL
Cn1cc(NC(=O)c2cc3ccccc3cn2)cc1C(=O)Nc1cc(-c2nc3cc(O)ccc3[nH]2)n(C)c1 [Compound A-6] | +++ (MIC ≦ 4 μg/mL) | +++ (MIC ≦ 4 μg/mL) | >32 µg/mL | +++ (MIC ≦ 4 μg/mL) | +++ (MIC ≦ 4 μg/mL) | +++ (MIC ≦ 4 μg/mL) | +++ (MIC ≦ 4 μg/mL)
Cn1cc(NC(=O)c2cc(NC(=O)c3sccc3Cl)cn2CCC[n+]2ccccc2)cc1-c1nc2ncccc2[nH]1 [Compound A-62] | + (12 ≦ MIC ≦ 32 μg/mL) | >32 µg/mL | >32 µg/mL | >32 µg/mL | >32 µg/mL | + (12 ≦ MIC ≦ 32 μg/mL) | + (12 ≦ MIC ≦ 32 μg/mL)
Cn1cc(NC(=O)c2cc3ccccc3cn2)cc1C(=O)Nc1cc(-c2nc3ccc(OC(=O)CCN4CCOCC4)cc3[nH]2)n(C)c1 [Compound A-9] | +++ (MIC ≦ 4 μg/mL) | +++ (MIC ≦ 4 μg/mL) | >32 µg/mL | +++ (MIC ≦ 4 μg/mL) | +++ (MIC ≦ 4 μg/mL) | +++ (MIC ≦ 4 μg/mL) | +++ (MIC ≦ 4 μg/mL)
Cn1cc(NC(=O)c2cc(NC(=O)c3ccc(Cl)cc3F)cn2CCCN2CCC(O)CC2)cc1-c1nc2ccccc2[nH]1 [Compound A-34] | +++ (MIC ≦ 4 μg/mL) | +++ (MIC ≦ 4 μg/mL) | + (12 ≦ MIC ≦ 32 μg/mL) | +++ (MIC ≦ 4 μg/mL) | +++ (MIC ≦ 4 μg/mL) | +++ (MIC ≦ 4 μg/mL) | +++ (MIC ≦ 4 μg/mL)
CC1CCN(CCCn2cc(NC(=O)c3sccc3Cl)cc2C(=O)Nc2cc(-c3nc4ccccc4[nH]3)n(C)c2)CC1 [Compound A-52] | +++ (MIC ≦ 4 μg/mL) | +++ (MIC ≦ 4 μg/mL) | + (12 ≦ MIC ≦ 32 μg/mL) | +++ (MIC ≦ 4 μg/mL) | +++ (MIC ≦ 4 μg/mL) | +++ (MIC ≦ 4 μg/mL) | +++ (MIC ≦ 4 μg/mL)
CC1CCN(CCCn2cc(NC(=O)c3ccc(Cl)cc3F)cc2C(=O)Nc2cc(-c3nc4ccccc4[nH]3)n(C)c2)CC1 [Compound A-38] | +++ (MIC ≦ 4 μg/mL) | +++ (MIC ≦ 4 μg/mL) | + (12 ≦ MIC ≦ 32 μg/mL) | +++ (MIC ≦ 4 μg/mL) | +++ (MIC ≦ 4 μg/mL) | +++ (MIC ≦ 4 μg/mL) | +++ (MIC ≦ 4 μg/mL)
